In patent publication US9447136B2, “Semisynthetic derivatives of Nystatin A1” (BLIRT S.A., priority 2012, dated 2016):
Values after ≈ are worked out from the molar mass of the structure shown.

Experiments:
Human erythrocytes = test: Hemotoxicity (hemolytic activity)
Summary of the method: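 Human erythrocytes in saline (2×10^7/ml) were incubated with serially diluted compound at 37 °C for 30 min, then centrifuged. Released hemoglobin was read as A540 against 0.1% Triton X-100 as full hemolysis. EH50 is the interpolated concentration giving 50% of the control A540.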

[1] = system: Candida stellatoidea CBS 1905; test: Antifungal activity in vitro, serial dilution in RPMI 1640; type: cell-based; conditions: Table 2B
Summary of the method: (§1)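 Serial dilution, RPMI 1640 pH 7.0 (M27-A2 reference method); A531 read-out. IC50 = interpolated conc. at 50% of control A531; MIC = lowest conc. with A531 ≤20% of control.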

[2] = system: Candida parapsilosis DSM 5784; test: as above; type: cell-based; conditions: Table 2B
Summary of the method: as §1

Candida krusei DSM 6128 = test: as above; type: cell-based; conditions: Table 2A; RPMI 1640, pH 7.0
Summary of the method: as §1

[3] = system: Aspergillus niger LOCK E201; test: as above; type: cell-based; conditions: Table 2B
Summary of the method: as §1

[4] = system: Candida quilliermondii DSM 11947; test: as above; type: cell-based; conditions: Table 2B
Summary of the method: as §1

Candida arborea KKP 319 = test: as above; type: cell-based; conditions: Table 2B
Summary of the method: as §1

[5] = system: Candida lipolytica KKP 322; test: as above; type: cell-based; conditions: Table 2B
Summary of the method: as §1

[6] = system: Saccharomyces cerevisiae ATCC 9763; test: as above; type: cell-based; conditions: for Antifungal activity Saccharomyces cerevisiae ATCC 9763 MIC: Table 2A, RPMI 1640, pH 7.0, A531 at most 20% of control; for MIC Saccharomyces cerevisiae ATCC 9763: Table 2B
Summary of the method: as §1

[7] = system: Candida dubliniensis CBS 7987; test: as above; type: cell-based; conditions: Table 2B
Summary of the method: as §1

[8] = system: Candida albicans ATCC 10231; test: as above; type: cell-based; conditions: for Antifungal activity Candida albicans ATCC 10231 IC50 / Antifungal activity Candida albicans ATCC 10231 MIC: Table 2A, RPMI 1640, pH 7.0; for Antifungal activity Candida albicans ATCC 10231 IC50: A531 50% of control; for Antifungal activity Candida albicans ATCC 10231 MIC: A531 at most 20% of control; for MIC Candida albicans ATCC 10231: Table 2B
Summary of the method: as §1

[9] = system: Candida glabrata DSM 11226; test: as above; type: cell-based; conditions: Table 2A; RPMI 1640, pH 7.0
Summary of the method: as §1

[10] = system: Candida tropicalis KKP 334; test: as above; type: cell-based; conditions: Table 2A; RPMI 1640, pH 7.0
Summary of the method: as §1

[11] = system: Trichoderma viride LOCK E159; test: as above; type: cell-based; conditions: Table 2B
Summary of the method: as §1

[12] = system: Candida pseudotropicalis KKP 324; test: as above; type: cell-based; conditions: Table 2B
Summary of the method: as §1

HepG2 = test: Cytotoxic activity against mammalian cells in tissue culture (MTT); type: cell-based, human
Method: (§2) For examinations were used selected cell lines: CCRF-CEM—human acute lymphoblastic leukemia; HepG2—human malignant hepatoma; LLC-PK1—epithelial cell of pig kidney; All lines were from ATCC collection.
(§3) The study are conducted using described below methods of culturing and determination of cytotoxic activity.
(§4) CCRF-CEM cells were cultured in medium RPMI 1640+10% fetal bovine serum (FBS), LLC-PK1 cells in medium Medium 199+3% FBS, HepG2 cells in medium MEM+10% FBS. All media contained 100 μg/ml of penicillin G and streptomycin. 24-wells microplates containing appropriate medium were inoculated with the cells in amount of 1.2×10^4 cells/well and allowed to stand overnight. Next, tested compounds as solution in dimethylsulfoxide (DMSO) were added in volume of 10 μl (serial 2× dilutions). To control well 10 μl of DMSO was added. Microplates with cell suspensions were incubated for 120 h at temperature 37° C. at atmosphere of 95%/5% CO2. After incubation, to all wells 200 μl of solution of 3-(4,5-dimethylthiazole-2-yl)-2,5-diphenylotetrazole bromide (MTT) in PBS (4 mg/ml) was added and plates were further incubated for 4 h at 37° C. Next, to dissolve crystals of formazane 1 ml of DMSO was added and absorption of solutions was measured at the wavelength λ=540 nm (A540), using a microplates reader (Victor^3, Perkin-Wallac). […] From these graphs IC50 values were read, that is concentration of tested compound in the presence at which A540 value is half of A540 value measured in the control sample.

CCRF-CEM = test: as above; type: cell-based, human
Method: as §2, §3, §4

Candida albicans STY31 = test: Antifungal activity towards resistant (MDR) strains; type: cell-based; conditions: 5674 mutant derivative, deletion of CDR1 and CDR2
Method: (§5) The determination of antifungal activity was performed by the serial dilutions method in buffered RPMI 1640 medium, in a 96-wells microplates, according to the standard procedure (National Committee for Clinical Laboratory Standards. Reference method for broth dilution antifungal susceptibility testing of yeast, approved standard, 2nd ed. M27-A2 vol. 22 Wayne, Pa., 2002). The optical density of cells suspension was measured using a microplates reader (Victor^3, Perkin-Elmer) at the wavelength λ=660 nm (A660). On the basis of received results the diagrams on interrelation between the A660 value and the concentration of tested compound were made. From these graphs MIC values were read, that are the concentrations of tested compounds, in the presence at which A660 value is at most 20% of A660 value measured in control sample.

Candida albicans STY19 = test: as above; type: cell-based; conditions: 5674 mutant derivative, deletion of CDR1
Method: as §5

Candida albicans F2 = test: as above; type: cell-based; conditions: fluconazole sensitive, parent strain for F5
Method: as §5

Candida albicans B3 = test: as above; type: cell-based; conditions: fluconazole sensitive, parent strain for B4
Method: as §5

Candida albicans F5 = test: as above; type: cell-based; conditions: fluconazole-resistant due to the overexpression of CaMDR1 and ERG11
Method: as §5

Candida albicans STY7 = test: as above; type: cell-based; conditions: 5674 mutant derivative, deletion of CDR2
Method: as §5

Candida albicans Gu4 = test: as above; type: cell-based; conditions: fluconazole sensitive, parent strain for Gu5
Method: as §5

Candida albicans 5674 = test: as above; type: cell-based; conditions: C. albicans 5674 overexpressing CDR1 and CDR2
Method: as §5

Candida albicans Gu5 = test: as above; type: cell-based; conditions: fluconazole-resistant due to the overexpression of CDR1 and CDR2
Method: as §5

Candida albicans B4 = test: as above; type: cell-based; conditions: fluconazole-resistant due to the overexpression of CaMDR1
Method: as §5

LLC-PK1 = test: Cytotoxic activity against mammalian cells in tissue culture (MTT); type: cell-based, pig
Method: as §2, §3, §4

With `CC1OC(O[C@H]2/C=C/C=C/C=C/C=C/CC/C=C/C=C/[C@H](C)[C@@H](O)[C@@H](C)[C@H](C)OC(=O)C[C@H](O)C[C@H](O)C[C@H](O)CC[C@@H](O)[C@H](O)CC3(O)C[C@H](O)[C@@H](C(=O)O)[C@H](C2)O3)C(O)C(NC(=O)[C@H](N)CCC(=O)OC(C)(C)C)C1O` (stereo partly drawn) [Compound N37, N-D-(O-tert-butyl)glutamylnystatin A1] the “% of hemolysis at the concentration 60 μg ml^−1” value (Human erythrocytes) was 0.04%, the “MIC Candida stellatoidea CBS 1905” value [1] was 8 µg/mL (≈ 7.2 µM) and the “MIC Candida parapsilosis DSM 5784” value [2] was 16 µg/mL (≈ 14.4 µM). The “Antifungal activity Candida krusei DSM 6128 MIC” value (Candida krusei DSM 6128) was 8 µg/mL, the “MIC Aspergillus niger LOCK E201” value [3] was 16 µg/mL (≈ 14.4 µM) and the “MIC Candida quilliermondii DSM 11947” value [4] was 16 µg/mL (≈ 14.4 µM). For the same molecule, the “MIC Candida arborea KKP 319” value (Candida arborea KKP 319) was 32 µg/mL (≈ 28.8 µM), the “MIC Candida lipolytica KKP 322” value [5] was 16 µg/mL (≈ 14.4 µM) and the “Antifungal activity Saccharomyces cerevisiae ATCC 9763 MIC” value [6] was 4 µg/mL. For the same molecule, the “MIC Saccharomyces cerevisiae ATCC 9763” value [6] was 4 µg/mL (≈ 3.6 µM), the “MIC Candida dubliniensis CBS 7987” value [7] was 8 µg/mL (≈ 7.2 µM) and the “Antifungal activity Candida albicans ATCC 10231 IC50” value [8] was 2.73 µg/mL. The “Antifungal activity Candida albicans ATCC 10231 MIC” value [8] was 4 µg/mL, the “MIC Candida albicans ATCC 10231” value [8] was 4 µg/mL (≈ 3.6 µM) and the “Antifungal activity Candida glabrata DSM 11226 MIC” value [9] was 8 µg/mL. For the same molecule, the “Antifungal activity Candida tropicalis KKP 334 MIC” value [10] was 4 µg/mL, the “MIC Trichoderma viride LOCK E159” value [11] was 32 µg/mL (≈ 28.8 µM) and the “MIC Candida pseudotropicalis KKP 324” value [12] was 8 µg/mL (≈ 7.2 µM). For the same molecule, the “Cytotoxicity IC50 HepG2” value (HepG2) was greater than 100 µg/mL, the “Cytotoxicity IC50 CCRF-CEM” value (CCRF-CEM) was greater than 100 µg/mL and the “MIC Candida albicans STY31” value (Candida albicans STY31) was 32 µg/mL (≈ 28.8 µM). For the same molecule, the “MIC Candida albicans STY19” value (Candida albicans STY19) was 32 µg/mL (≈ 28.8 µM), the “MIC Candida albicans F2” value (Candida albicans F2) was 16 µg/mL (≈ 14.4 µM) and the “MIC Candida albicans B3” value (Candida albicans B3) was 8 µg/mL (≈ 7.2 µM). The “MIC Candida albicans F5” value (Candida albicans F5) was 16 µg/mL (≈ 14.4 µM), the “MIC Candida albicans STY7” value (Candida albicans STY7) was 32 µg/mL (≈ 28.8 µM) and the “MIC Candida albicans Gu4” value (Candida albicans Gu4) was 8 µg/mL (≈ 7.2 µM). For the same molecule, the “MIC Candida albicans 5674” value (Candida albicans 5674) was 32 µg/mL (≈ 28.8 µM), the “MIC Candida albicans Gu5” value (Candida albicans Gu5) was 8 µg/mL (≈ 7.2 µM) and the “MIC Candida albicans B4” value (Candida albicans B4) was 8 µg/mL (≈ 7.2 µM). The “Cytotoxicity IC50 LLC-PK1” value (LLC-PK1) was 85.5 ± 4.30 µg/mL.
With `CCCN(CCC)[C@@H]1[C@H](O)[C@H](O[C@H]2/C=C/C=C/C=C/C=C/CC/C=C/C=C/[C@H](C)[C@@H](O)[C@@H](C)[C@H](C)OC(=O)C[C@H](O)C[C@H](O)C[C@H](O)CC[C@@H](O)[C@H](O)C[C@]3(O)C[C@H](O)[C@@H](C(=O)O)[C@H](C2)O3)O[C@H](C)[C@H]1O` [Compound N22, N,N-di-n-propylnystatin A1] the EH10 (Human erythrocytes) was 202.34 µg/mL, the “MIC Candida stellatoidea CBS 1905” value [1] was 4 µg/mL (≈ 3.96 µM) and the “MIC Candida parapsilosis DSM 5784” value [2] was 8 µg/mL (≈ 7.92 µM). The “Antifungal activity Candida krusei DSM 6128 MIC” value (Candida krusei DSM 6128) was 8 µg/mL, the “MIC Aspergillus niger LOCK E201” value [3] was 8 µg/mL (≈ 7.92 µM) and the “MIC Candida quilliermondii DSM 11947” value [4] was 8 µg/mL (≈ 7.92 µM). The “MIC Candida arborea KKP 319” value (Candida arborea KKP 319) was 8 µg/mL (≈ 7.92 µM), the “MIC Candida lipolytica KKP 322” value [5] was 4 µg/mL (≈ 3.96 µM) and the “Antifungal activity Saccharomyces cerevisiae ATCC 9763 MIC” value [6] was 2 µg/mL. For the same molecule, the “MIC Saccharomyces cerevisiae ATCC 9763” value [6] was 2 µg/mL (≈ 1.98 µM), the “MIC Candida dubliniensis CBS 7987” value [7] was 2 µg/mL (≈ 1.98 µM) and the “Antifungal activity Candida albicans ATCC 10231 IC50” value [8] was 3.14 µg/mL. The “Antifungal activity Candida albicans ATCC 10231 MIC” value [8] was 4 µg/mL, the “MIC Candida albicans ATCC 10231” value [8] was 4 µg/mL (≈ 3.96 µM) and the “Antifungal activity Candida glabrata DSM 11226 MIC” value [9] was 4 µg/mL. For the same molecule, the “Antifungal activity Candida tropicalis KKP 334 MIC” value [10] was 4 µg/mL, the “MIC Trichoderma viride LOCK E159” value [11] was 8 µg/mL (≈ 7.92 µM) and the “MIC Candida pseudotropicalis KKP 324” value [12] was 4 µg/mL (≈ 3.96 µM). The “Cytotoxicity IC50 HepG2” value (HepG2) was 82.9 ± 19.87 µg/mL, the “Cytotoxicity IC50 CCRF-CEM” value (CCRF-CEM) was greater than 100 µg/mL and the “MIC Candida albicans STY31” value (Candida albicans STY31) was 4 µg/mL (≈ 3.96 µM). For the same molecule, the “MIC Candida albicans STY19” value (Candida albicans STY19) was 4 µg/mL (≈ 3.96 µM), the “MIC Candida albicans F2” value (Candida albicans F2) was 4 µg/mL (≈ 3.96 µM) and the “MIC Candida albicans B3” value (Candida albicans B3) was 8 µg/mL (≈ 7.92 µM). The “MIC Candida albicans F5” value (Candida albicans F5) was 4 µg/mL (≈ 3.96 µM), the “MIC Candida albicans STY7” value (Candida albicans STY7) was 4 µg/mL (≈ 3.96 µM) and the “MIC Candida albicans Gu4” value (Candida albicans Gu4) was 8 µg/mL (≈ 7.92 µM). The “MIC Candida albicans 5674” value (Candida albicans 5674) was 4 µg/mL (≈ 3.96 µM), the “MIC Candida albicans Gu5” value (Candida albicans Gu5) was 8 µg/mL (≈ 7.92 µM) and the “MIC Candida albicans B4” value (Candida albicans B4) was 8 µg/mL (≈ 7.92 µM). For the same molecule, the “Cytotoxicity IC50 LLC-PK1” value (LLC-PK1) was greater than 100 µg/mL.
